# Reference: patent publication US6310037A, “Method of controlling protozoan infections using syringomycin-family lipodepsipeptides” (Utah State University, priority 1999, dated 2001)
# Several values for one entry are separate records, joined by “and”; a condition that tells them apart may be missing. Identical values can stand only once. Like-named read-outs stand apart in the source and are kept apart here. Where a SMILES comes first, the peptide text is derived from it. Bridges are numbered along the chain shown (N, C = ends). [ ]: non-standard residue; d: D form. The star is where a group is joined. Asp(3S-OH) = N[C@H](C(=O)O)[C@H](O)C(=O)O; Thr(4-Cl) = N[C@H](C(=O)O)[C@H](O)CCl; X1 = CCCCCCCCC[C@@H](O)CC(=O)*; dDab = NCC[C@@H](N)C(=O)O; Dab = NCC[C@H](N)C(=O)O; Dhb = C/C=C(\N)C(=O)O
# Legend:
# C. parvum [1] = assay type: cell-based, C. parvum (bovine isolate); conditions: MDBK cells; for Infection % (Day 5) / Infection % (Day 2): % of untreated control; for Infection % (Day 2): mean ± SEM
# Description: C. parvum (bovine isolate) oocysts used in this study were originally donated by the U.S. Department of Agriculture, Ames, Iowa. The oocysts were isolated from calf manure, preserved in 2.5% potassium dichromate at 4° C., and used within 3 months of purification. Oocysts were decontaminated by suspension in 20% (vol/vol) 1.05% sodium hypochlorite on ice for 20 minutes. Oocysts were then washed three times in Hanks' balanced salt solution ("HBSS") and once in RPMI 1640 (available from Sigma, St. Louis, Mo.). Release of sporozoites was achieved by incubating oocysts in an excystation solution consisting of 0.25% (wt/vol) trypsin (available from Sigma, St. Louis, Mo.) and 0.75% (wt/vol) taurodeoxycholic acid (available from Sigma) in HBSS. The resulting suspension was incubated at 37° C. for 45 minutes and microscopically observed to confirm sporozoite release. Sporozoites were completely separated from intact oocysts and oocyst walls by passage through sterile polycarbonate filters (3 micron pore size, available from Millipore Corp., Bedford, Mass.) twice prior to inoculation of bovine fallopian tube epithelial ("BFTE") cell monolayers.
# Coverslips were removed at 5, 24, 48, 72, 96, and 120 hours from the inoculated wells containing monolayers of BFTE cells. The coverslips were washed in RPMI 1640, fixed in 100% methanol for 10 minutes, rinsed twice with 25 mM PBS, and stained with an indirect immunofluorescent assay (IFA) using monoclonal antibody (Mab) 5H11. Mab 5H11 specifically reacts with an antigen present on intermediate stages of C. parvum development. Coverslips were then mounted on glass slides and examined under oil immersion (1000×), using […] microscopy. Parasites were enumerated by counting all developmental stages of C. parvum present in a single scan (67 fields) through the center of each coverslip. The data were statistically compared for significance, using analysis of variance (Fischer's protected least-significant-difference test using a "STATVIEW" statistical analysis application developed by Abacus Concepts, Inc., Berkeley, Calif.).
# Madin-Darby bovine kidney (MDBK) epithelial cells were also used to culture C. parvum in this study. Dulbecco's modified Eagle medium (DMEM) with 10% FBS was used for routine passage of MDBK cells purchased from American Type Collection for Culture (Rockville, Md.). Mycoplasma contamination was periodically checked with Hoechst staining (Uphoff et al., 1992). At confluence, MDBK cells were lifted from culture flasks with trypsin, enumerated, and redistributed to assay plates. Ninety-six well cell culture plates were employed to assess cytotoxicity of testing agents or the parasite or both to host cells using neutral red staining or lactic dehydrogenase (LDH) assay.
# For enumeration of C. parvum development in culture, 24-well plates were used with a sterile glass coverslip placed in each well. DMEM base was used at and post C. parvum inoculation.
# A single concentration of Syr-E at 15 μg/ml was used to treat MDBK cells at pH 7 with C. parvum infection. Group 1 served as an infection control, receiving no Syr-E treatment. Syr-E was administered 1 day prior to parasite inoculation to groups 2, 4, and 5, at the inoculation day to groups 3-5, and 1 day post inoculation to groups 3 and 5, respectively. Following specified administration day(s), supernatants of corresponding wells containing Syr-E were removed and replaced with fresh DMEM base. Cytotoxicity was monitored using lactic dehydrogenase (LDH) assay on day 1 post inoculation. Three coverslips from each group were collected on days 2 and 5 post inoculation, were fixed, and were stained with the specific IFA, as described with reference to Example II.
# Therefore, MDBK cells were employed to explore the inhibitory effect of Syr-E on C. parvum development in vitro, as shown in FIG. 3. […]
# L. donovani = assay type: cell-based; conditions: pH 5.5, 72 hours
# Description: L. donovani parasites (WHO designation: MHOM/SD/62/1S-CL2D) used in this study were originally donated by the National Institutes of Health. These parasites were maintained as axenic amastigote-like forms by serial passage at 37°C. in a humid atmosphere containing 5% CO2 using a slightly modified version of the medium described by Joshi et al., Cloning and characterization of differentially expressed genes from in vitro-grown `amastigotes` of Leishmania donovani. Molecular and Biochemical Parasitology, 1993. 58: p. 345-354, the contents of which are incorporated herein by this reference.
# L. donovani amastigote-like forms were seeded at 10^6 cells/ml in 96-well flat-bottom plates (Costar) in the amastigote medium described above in the presence or absence of drugs. The final volume in each well was 60 μl. Wells containing control parasites included 1% DMSO, the maximum concentration of the vehicle found in drug-containing samples. Plates were incubated at 37° C. in a humid 5% CO2 atmosphere for 72 hours, then 12 μl of the aqueous CellTiter solution (Promega) was added to each well according to the instructions of the manufacturer. Plates were returned to the 37° C. incubator for a further 4-5 hours, then the absorbance of each well was measured at 490 nm using a SpectraMax Plus plate reader (Molecular Devices, Sunnyvale, Calif.). IC50 values for each of the drugs (the concentration of drug that inhibited the growth of parasites by 50% compared to controls) was determined with the aid of the program SoftMax Pro (Molecular Devices). The log dose response equation y=((a-d)/(1+(x/c)^b))+d was used to calculate IC50 values, where x=drug concentration, y=absorbance at 490 nm, a=upper asymptote, b=slope, c=IC50, and d=lower asymptote.
# Activity of Syr-E against L. donovani was determined using a cell-free amastigote culture technique that included the uptake of a vital dye (Cell Titer solution, Promega Corporation) as a measure of parasite viability at 72 hours post inoculation. OD values for serial dilutions of Syr-E were transformed as described for the malaria screen (Example VII) to determine IC50 values against Leishmania. The amastigote assay was performed at a pH of 5.5, which is favorable for Syr-E activity.
# C. parvum [2] = assay type: cell-based, C. parvum (bovine isolate); conditions: MDBK cells, day 2 post inoculation
# [3] = Group 2: Syr-E 15 μg/ml, 1 day, prior to inoculation, pH 7
# [4] = Group 3: Syr-E 15 μg/ml, 2 days, at and post inoculation, pH 7
# [5] = Group 4: Syr-E 15 μg/ml, 2 days, prior to and at inoculation, pH 7
# [6] = Group 5: Syr-E 15 μg/ml, 3 days, prior to, at, and post inoculation, pH 7
structure (smiles),measurement,setting,value
"C/C=C1\NC(=O)[C@H](Cc2ccccc2)NC(=O)[C@H](CCCNC(=N)N)NC(=O)[C@H](CCN)NC(=O)[C@@H](CCN)NC(=O)[C@@H](CO)NC(=O)[C@@H](NC(=O)C[C@H](O)CCCCCCCCC)COC(=O)[C@H]([C@H](O)CCl)NC(=O)[C@H]([C@H](O)C(=O)O)NC1=O [Syr-E, Syringomycin-E] (X1-S[dS][dDab][Dab]RF[Dhb][Asp(3S-OH)][Thr(4-Cl)]; ester 1-C)",Infection % (Day 5),C. parvum [1]; [3],22% and 21.9%
same,Infection % (Day 2),C. parvum [1]; [3],13% and 12.9 ± 2.7%
same,Infection % (Day 5),C. parvum [1]; [4],11.7%
same,Infection % (Day 2),C. parvum [1]; [4],10.2 ± 2.1%
same,Infection % (Day 5),C. parvum [1]; [5],1.4%
same,Infection % (Day 2),C. parvum [1]; [5],1.1 ± 0.2%
same,Infection % (Day 5),C. parvum [1]; [6],1.0%
same,Infection % (Day 2),C. parvum [1]; [6],0.9 ± 0.1%
same,infection percentage of the untreated control,"C. parvum [1]; Syr-E 15 μg/ml, day 5 post inoculation",14.7%
same,infection percentage,"C. parvum [1]; Syr-E 15 μg/ml, treatment prior to and at the inoculation, pH 7, day not given",approximately 1%
same,OD Values,"L. donovani; Sample 1, Concentration 4.00000 (unit not given)",0.099
same,OD Values,"L. donovani; Sample 2, Concentration 2.00000 (unit not given)",0.097
same,OD Values,"L. donovani; Sample 3, Concentration 1.00000 (unit not given)",0.090
same,OD Values,"L. donovani; Sample 4, Concentration 0.50000 (unit not given)",0.089
same,OD Values,"L. donovani; Sample 5, Concentration 0.25000 (unit not given)",0.090
same,OD Values,"L. donovani; Sample 6, Concentration 0.12500 (unit not given)",0.102
same,OD Values,"L. donovani; Sample 7, Concentration 0.06250 (unit not given)",0.678
same,OD Values,"L. donovani; Sample 8, Concentration 0.03125 (unit not given)",0.664
same,OD Values,"L. donovani; Sample 9, Concentration 0.01563 (unit not given)",0.709
same,OD Values,"L. donovani; Sample 10, Concentration 0.00781 (unit not given)",0.652
same,OD Values,"L. donovani; Sample 11, Concentration 0.00391 (unit not given)",0.672
same,IC50,L. donovani; amastigote assay,0.10115 µg/mL
same,infection percentage compared to the untreated control,C. parvum [2]; Syr-E 5.0 μg/ml,significantly (P<0.05) reduced the infection percentage
same,inhibition of parasite growth and development,C. parvum [2]; Syr-E 20 μg/ml,99.5%
